Test results from publication PMC7037546, “High Cell Selectivity and Bactericidal Mechanism of Symmetric Peptides Centered on D-Pro–Gly Pairs” (International Journal of Molecular Sciences, 2020).
Values after ≈ are worked out from the molar mass of the structure shown. Non-standard residues stand in square brackets, D forms with d. Residues, ends and D or L forms follow the SMILES beside them. No end group written: not given here.

Assays:
[1] = tested on: Escherichia coli ATCC25922; assay: microbe, parasite or virus in culture; conditions: ATCC25922, 16 h
Description: (§1) The antimicrobial activity of the designed peptides was examined using the micro-dilution method described previously. The bacteria were cultured for 16 h in MHB at 37 °C, and the microbial suspension was diluted to a final concentration of 10^5 colony-forming units (CFU)/mL. Then, 50 µL of MHB containing different concentrations peptides (0.25–256 µM) was mixed with 50 µL of bacterial solution, and the mixture was added to a 96-well plate. […] The assays were performed three times.

E. coli K88 = conditions: micro-dilution in MHB, 10^5 CFU/mL, 16 h, OD 492 nm, performed three times
Description: as §1

[2] = tested on: Enterococcus faecalis ATCC29212; conditions: ATCC29212, 16 h
Description: as §1

Gram-negative bacteria = conditions: 16 h
Description: as §1

[3] = tested on: Klebsiella pneumonia CMCC46117; conditions: CMCC46117, 16 h
Description: as §1

[4] = tested on: Pseudomonas aeruginosa ATCC27853; conditions: ATCC27853, 16 h
Description: as §1

S. aureus ATCC29213 = conditions: ATCC29213, 16 h
Description: as §1

[5] = tested on: Salmonella Pullorum NCTC5776; conditions: NCTC5776, 16 h
Description: as §1

[6] = tested on: Staphylococcus aureus ATCC25923; conditions: ATCC25923, 16 h
Description: as §1

[7] = tested on: methicillin-resistant S. aureus ATCC43300; conditions: ATCC43300, 16 h
Description: as §1

Gram-positive bacteria = assay: Geometric mean of MICs and therapeutic index, Gram (+); format: cell-based; conditions: geometric mean over the Gram-positive strains of Table 2; 256 μM used when no activity at 128 μM
Description: as §1

RAW 264.7 cells = assay: Cytotoxicity, CCK-8 assay; format: cell-based, murine; conditions: 64 μM peptide, 16 h, CCK-8, OD 450 nm
Description: (§2) The cytotoxicity was detected according to a CCK-8 assay as described previously. Briefly, RAW 264.7 and HEK293T cells were placed into 96-well plates at a density of 1.0–2.0 × 10^5, and then cultured for 16 h under conditions of 5% CO2. Then, two-fold diluted peptides in DMEM were added to the plates. After 16 h of culturing, CCK-8 (10%, v/v) was put into each well containing cell culture, and mixtures were cultured for 2 h. The cytotoxicity assay was examined by measuring the OD of the mixtures at 450 nm (Microplate reader, TECAN GENios F129004, Tecan, Salzburg, Austria). The assays were performed three times.

HEK293T cells = assay: Cytotoxicity, CCK-8 assay; format: cell-based, human; conditions: 64 μM peptide, 16 h, CCK-8, OD 450 nm
Description: as §2

E. coli ATCC25922 [8] = format: cell-based, Escherichia coli; conditions: for MIC after pH treatment, pH 4 / MIC after pH treatment, pH 6 / MIC after pH treatment, pH 8 / MIC after pH treatment, pH 10: ATCC25922, 1 h; for MIC after temperature treatment, 0 °C / MIC after temperature treatment, 37 °C / MIC after temperature treatment, 100 °C / MIC in the presence of FeCl3 / MIC in the presence of KCl / MIC in the presence of MgCl2 / MIC in the presence of NH4Cl / MIC in the presence of NaCl / MIC in the presence of ZnCl2 / MIC, Control / MIC, Control (pH 7): ATCC25922, 16 h
Description: as §1
The salt, temperature, and pH sensitivities of designed peptides were determined by MIC assay as described previously. For the salt sensitivity assay, peptides were diluted in deionized water containing different salts, and mixed with E. coli ATCC25922 (10^5 CFU/mL). The final physiological concentrations of different salts were as follows: 150 mM NaCl, 4.5 mM KCl, 6 μM NH4Cl, 1 mM MgCl2, 8 μM ZnCl2, and 4 μM FeCl3. For temperature sensitivity, peptides were cooled on ice for 10 min, and incubated at 37 °C and 100 °C for 30 min. For pH sensitivity, peptides were treated with different pH for 1 h. Briefly, peptides were diluted in deionized water, and the pH of the solution was adjusted to 4.0, 6.0, 8.0, and 10.0 with HCl or NaOH. The subsequent steps were the same as for the MIC measurements. These tests were performed three times.

E. coli ATCC25922 [9] = conditions: ATCC25922, 16 h
Description: The combined antibacterial effect of peptides with other antibiotics was evaluated by checkerboard assay as described previously. […] Subsequently, each peptide at the same concentration was added to the longitudinal column of wells, and each antibiotic at the same concentration was added to the horizontal row of wells. A suspension at 10^5 CFU/mL was put into each well for 16 h at 37 °C. Each assay was performed three times.

## CC(C)C[C@H](NC(=O)[C@H](CC(C)C)NC(=O)[C@H](CCCNC(=N)N)NC(=O)[C@H](CC(C)C)NC(=O)[C@H](CC(C)C)NC(=O)[C@H](CCCNC(=N)N)NC(=O)[C@H](CCCNC(=N)N)NC(=O)CNC(=O)[C@H]1CCCN1C(=O)[C@H](CCCNC(=N)N)NC(=O)[C@H](CCCNC(=N)N)NC(=O)[C@H](CC(C)C)NC(=O)[C@H](CC(C)C)NC(=O)[C@H](CCCNC(=N)N)NC(=O)[C@H](CC(C)C)NC(=O)[C@@H](N)CC(C)C)C(N)=O [LRpG] (H-LLRLLRR[dP]GRRLLRLL-NH2)
[1]
  MIC: 2 µM (≈ 4.03 µg/mL)
E. coli K88
  MIC: 2 µM (≈ 4.03 µg/mL)
[2]
  MIC: 32 µM (≈ 64.4 µg/mL)
Gram-negative bacteria
  GM (geometric mean of MICs), Gram (−): 3.5 µM
[3]
  MIC: 4 µM (≈ 8.05 µg/mL)
[4]
  MIC: 8 µM (≈ 16.1 µg/mL)
S. aureus ATCC29213
  MIC: 16 µM (≈ 32.2 µg/mL)
[5]
  MIC: 4 µM (≈ 8.05 µg/mL)
[6]
  MIC: 16 µM (≈ 32.2 µg/mL)
[7]
  MIC: 16 µM (≈ 32.2 µg/mL)
Gram-positive bacteria
  GM (geometric mean of MICs), Gram (+): 19.0 µM
RAW 264.7 cells
  cell survival rate: 92%
HEK293T cells
  cell survival rate: 93%
E. coli ATCC25922 [8]
  MIC after pH treatment, pH 4: 2 µM
  MIC after pH treatment, pH 6: 2 µM
  MIC after pH treatment, pH 8: 2 µM
  MIC after pH treatment, pH 10: 4 µM
  MIC after temperature treatment, 0 °C: 2 µM (≈ 4.03 µg/mL)
  MIC after temperature treatment, 37 °C: 2 µM (≈ 4.03 µg/mL)
  MIC after temperature treatment, 100 °C: 2 µM (≈ 4.03 µg/mL)
  MIC in the presence of FeCl3: 2 µM
  MIC in the presence of KCl: 2 µM
  MIC in the presence of MgCl2: 2 µM
  MIC in the presence of NH4Cl: 2 µM
  MIC in the presence of NaCl: 8 µM
  MIC in the presence of ZnCl2: 2 µM
  MIC, Control: 2 µM (≈ 4.03 µg/mL)
  MIC, Control (pH 7): 2 µM
E. coli ATCC25922 [9]
  FICI in combination with Cefotaxime: 1
  FICI in combination with Chloramphenicol: 0.75
  FICI in combination with Ciprofloxacin: 0.625
  FICI in combination with Streptomycin: 0.5
  FICI in combination with other conventional antibiotics (additive effect): 0.625-1

## LLRLLRRGGRRLLRLL-NH2 [LRGG]
[1]
  MIC: 2 µM
E. coli K88
  MIC: 4 µM
[2]
  MIC: 32 µM
Gram-negative bacteria
  GM (geometric mean of MICs), Gram (−): 4.6 µM
[3]
  MIC: 8 µM
[4]
  MIC: 8 µM
S. aureus ATCC29213
  MIC: 16 µM
[5]
  MIC: 4 µM
[6]
  MIC: 16 µM
[7]
  MIC: 32 µM
Gram-positive bacteria
  GM (geometric mean of MICs), Gram (+): 22.6 µM
RAW 264.7 cells
  cell survival rate: 84%
HEK293T cells
  cell survival rate: 91%
E. coli ATCC25922 [8]
  MIC after pH treatment, pH 4: 2 µM
  MIC after pH treatment, pH 6: 2 µM
  MIC after pH treatment, pH 8: 2 µM
  MIC after pH treatment, pH 10: 4 µM
  MIC after temperature treatment, 0 °C: 2 µM
  MIC after temperature treatment, 37 °C: 2 µM
  MIC after temperature treatment, 100 °C: 2 µM
  MIC in the presence of FeCl3: 2 µM
  MIC in the presence of KCl: 2 µM
  MIC in the presence of MgCl2: 4 µM
  MIC in the presence of NH4Cl: 2 µM
  MIC in the presence of NaCl: 8 µM
  MIC in the presence of ZnCl2: 2 µM
  MIC, Control: 2 µM
  MIC, Control (pH 7): 2 µM
